Data from ChEMBL document CHEMBL1201862, “PubChem BioAssay data set” (2004).
Active and inactive are the calls of the source.

Experiments:
[1] = Luminescence-based cell-based high throughput dose response assay to identify activators of the DAF-12 from the parasite S. stercoralis (ssDAF-12).; format: functional
[2] = target: T1, Oxysterols receptor LXR-beta (Homo sapiens, UniProt P55055); test: LXR agonists, Gal4 luciferase reporter, dose response, counter-screen for ssDAF-12 agonist project, cell-based, luminescence, HEK293, S. stercoralis campaign (AID 720737); format: functional; details: read-out: IC50 (the source's name)
T1 sequence (P55055 whole entry): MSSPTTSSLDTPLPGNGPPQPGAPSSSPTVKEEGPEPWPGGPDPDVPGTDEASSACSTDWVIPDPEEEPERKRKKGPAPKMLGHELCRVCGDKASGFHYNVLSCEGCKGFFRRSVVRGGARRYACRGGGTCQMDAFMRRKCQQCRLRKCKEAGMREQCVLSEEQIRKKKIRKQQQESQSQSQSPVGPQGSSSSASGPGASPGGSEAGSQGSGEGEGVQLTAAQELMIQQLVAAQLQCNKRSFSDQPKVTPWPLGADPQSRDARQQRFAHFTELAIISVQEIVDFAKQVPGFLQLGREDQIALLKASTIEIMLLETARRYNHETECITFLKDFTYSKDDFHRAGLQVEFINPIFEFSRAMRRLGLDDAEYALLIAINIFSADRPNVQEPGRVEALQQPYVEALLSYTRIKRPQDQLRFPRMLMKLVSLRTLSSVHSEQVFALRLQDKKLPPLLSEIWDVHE

[3] = target: T1, Oxysterols receptor LXR-beta; format: functional, cell-based
Prothrombin = Prothrombin (Homo sapiens, UniProt P00734); test: Thrombin 1536 HTS Dose Response Confirmation. [Related pubchem assays: 1046 (Thrombin 1536 HTS; hits were confirmed in this assay)]; format: functional
[4] = HEp-2 cell cytotoxicity, dose response, cytotoxicity control for RSV inhibitor project, HTS (AID 2410); format: functional; details: human respiratory syncytial virus
[5] = target: T2, Replicative DNA helicase DnaB (Mycobacterium tuberculosis, UniProt P9WMR3); test: DnaB intein splicing inhibitors, dose response, biochemical, cell-free fluorescence (AID 449749); format: functional
T2 sequence (P9WMR3 whole entry): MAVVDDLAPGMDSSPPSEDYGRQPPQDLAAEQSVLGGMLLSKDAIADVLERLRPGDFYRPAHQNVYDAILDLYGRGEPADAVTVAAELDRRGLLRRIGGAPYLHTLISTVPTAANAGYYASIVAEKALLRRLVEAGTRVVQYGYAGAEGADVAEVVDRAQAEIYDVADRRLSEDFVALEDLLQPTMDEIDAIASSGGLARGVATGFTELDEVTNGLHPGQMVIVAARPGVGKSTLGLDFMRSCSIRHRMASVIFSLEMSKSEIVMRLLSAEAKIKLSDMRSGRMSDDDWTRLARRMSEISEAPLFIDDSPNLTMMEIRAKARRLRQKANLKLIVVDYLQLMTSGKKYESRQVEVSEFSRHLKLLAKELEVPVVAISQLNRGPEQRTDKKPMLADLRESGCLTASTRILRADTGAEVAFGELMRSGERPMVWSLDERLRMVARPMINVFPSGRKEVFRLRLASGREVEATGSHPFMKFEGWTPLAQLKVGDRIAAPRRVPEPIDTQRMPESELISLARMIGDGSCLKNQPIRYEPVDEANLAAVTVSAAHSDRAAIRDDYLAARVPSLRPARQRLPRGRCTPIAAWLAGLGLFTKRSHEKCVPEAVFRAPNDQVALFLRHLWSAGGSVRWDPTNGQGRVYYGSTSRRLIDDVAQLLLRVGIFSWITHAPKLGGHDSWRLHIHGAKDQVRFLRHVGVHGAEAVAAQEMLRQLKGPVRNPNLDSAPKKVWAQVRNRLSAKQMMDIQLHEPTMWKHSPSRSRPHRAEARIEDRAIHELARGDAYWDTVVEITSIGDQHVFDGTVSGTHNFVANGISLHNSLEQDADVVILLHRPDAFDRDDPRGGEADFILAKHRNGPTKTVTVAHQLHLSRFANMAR

Protein RecA = target: T3, Protein RecA (Mycobacterium tuberculosis, UniProt P9WHJ3); test: Fluorescence Cell-Free Homogeneous Dose Retest to Identify Inhibitors of RecA-Intein Splicing Activity. [Related pubchem assays (depositor defined):AID2097, AID2223, AID489010, AID492950]; format: functional
T3 sequence (P9WHJ3 whole entry): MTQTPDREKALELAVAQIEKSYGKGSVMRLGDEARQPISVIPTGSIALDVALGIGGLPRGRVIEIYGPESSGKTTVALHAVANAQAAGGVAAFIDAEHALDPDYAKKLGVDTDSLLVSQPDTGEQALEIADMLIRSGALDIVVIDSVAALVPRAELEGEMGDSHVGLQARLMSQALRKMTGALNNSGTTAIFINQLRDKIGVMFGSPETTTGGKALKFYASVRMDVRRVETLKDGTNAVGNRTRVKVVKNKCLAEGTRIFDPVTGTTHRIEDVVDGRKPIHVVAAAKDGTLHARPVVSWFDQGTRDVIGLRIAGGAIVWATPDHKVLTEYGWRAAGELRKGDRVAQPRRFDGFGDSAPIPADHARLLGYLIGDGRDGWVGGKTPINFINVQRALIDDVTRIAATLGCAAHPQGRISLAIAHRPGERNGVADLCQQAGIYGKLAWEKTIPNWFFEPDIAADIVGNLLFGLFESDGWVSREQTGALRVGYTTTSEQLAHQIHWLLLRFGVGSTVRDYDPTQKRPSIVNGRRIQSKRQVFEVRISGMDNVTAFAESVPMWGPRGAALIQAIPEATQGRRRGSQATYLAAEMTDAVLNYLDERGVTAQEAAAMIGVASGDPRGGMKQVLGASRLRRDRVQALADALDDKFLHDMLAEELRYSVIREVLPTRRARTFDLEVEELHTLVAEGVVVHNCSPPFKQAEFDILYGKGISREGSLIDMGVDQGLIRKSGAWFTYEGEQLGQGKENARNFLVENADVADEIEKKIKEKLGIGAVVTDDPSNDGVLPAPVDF

[6] = inhibitors of HIV Env-driven cell fusion, dose response, cherry-pick (AID 652057); format: functional, cell-based
[7] = CEM21 lymphoblast cell cytotoxicity, dose response, cytotoxicity control for viral fusion inhibitor project, CellTiter-Glo luminescence, cherry-picked (AID 652042); format: functional, cell-based;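 further: potency for signal decrease meaning cytotoxicity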
[8] = ZM109 Env clade C HIV-1 fusion inhibitors, dose response, HeLa effector, CEM target cells, luciferase, cherry-pick (AID 652058); format: functional, cell-based
[9] = off-target signal loss in HeLa-CEM21 co-culture – HeLa F-luc CTL cells, cherry-picked, counter-screen for HIV-1 Env fusion inhibitor project, dose response (AID 652040); format: functional, cell-based;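 further: potency for signal decrease marking cytotoxic or nonspecific inhibition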
[10] = inhibitors of clade B AD8 Env fusion, dose response, cell-based, cherry-pick (AID 652062); format: functional;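 further: luciferase signal from cell-cell fusion driven by HIV-1 clade B AD8 Env; potency is for inhibitors of fusion seen as a drop in luminescence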
[11] = target: T4, Mannose-6-phosphate isomerase (Homo sapiens, UniProt P34949); test: human PMI inhibitors, high substrate, primary screen, biochemical, fluorescence intensity, high mannose 6-phosphate (AID 1220)
T4 sequence (P34949 whole entry): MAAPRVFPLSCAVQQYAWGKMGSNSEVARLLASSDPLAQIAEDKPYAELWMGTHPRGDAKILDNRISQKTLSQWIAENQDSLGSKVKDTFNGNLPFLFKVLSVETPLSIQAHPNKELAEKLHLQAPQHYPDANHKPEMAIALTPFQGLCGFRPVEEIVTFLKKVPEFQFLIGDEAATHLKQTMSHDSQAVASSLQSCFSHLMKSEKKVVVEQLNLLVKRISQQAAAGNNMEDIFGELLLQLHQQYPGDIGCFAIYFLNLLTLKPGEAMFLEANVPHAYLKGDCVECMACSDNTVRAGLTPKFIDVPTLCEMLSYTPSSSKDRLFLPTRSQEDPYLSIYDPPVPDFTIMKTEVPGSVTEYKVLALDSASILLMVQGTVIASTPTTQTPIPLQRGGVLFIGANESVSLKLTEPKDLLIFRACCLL

Caspase-6 = target: T5, Caspase-6 (Homo sapiens, UniProt P55212); test: human caspase-6 inhibitors, dose response, biochemical, VEID-R110 fluorescence, cherry-pick (AID 720632)
T5 sequence (P55212 whole entry): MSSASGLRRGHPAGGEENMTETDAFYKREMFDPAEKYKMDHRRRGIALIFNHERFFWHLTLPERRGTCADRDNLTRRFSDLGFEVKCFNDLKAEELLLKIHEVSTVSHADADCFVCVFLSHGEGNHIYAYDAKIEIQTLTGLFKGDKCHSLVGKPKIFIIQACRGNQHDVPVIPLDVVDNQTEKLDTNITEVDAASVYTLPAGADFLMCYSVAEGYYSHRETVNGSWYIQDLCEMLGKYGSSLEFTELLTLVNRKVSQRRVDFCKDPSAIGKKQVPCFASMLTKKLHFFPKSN

With `Cc1cccc2c(N=Nc3ccccc3)c(O)[nH]c12` the IC50 [1] was > 67.5 µM (inactive), the EC50 [2] was > 67.5 µM (inactive) and the EC50 [3] was > 67.5 µM (inactive). For the same compound, the EC50 (cells) was > 67.5 µM (inactive).

In the case of `CCOC(=O)c1sc(NC(=O)/C=C/c2cnn(C)c2C)c(C(=O)OCC)c1C`, the IC50 (Prothrombin) is reported as > 50 µM (not active).

With `Oc1nnc(Sc2ncnc3sccc23)n1CCc1ccccc1` the CC50 [4] was 14.9 µM (active), the AC50 [5] was > 380 µM (inactive) and the EC50 (Protein RecA) was 18 µM (active). For the same compound, the AC50 [6] was 7.58 µM (active), the AC50 [7] was 27 µM (active) and the AC50 [8] was 16.6 µM (active). The AC50 [9] was 17.3 µM (active) and the AC50 [10] was 18.1 µM (active).

In the case of `CCC1(CC)Cc2ccccc2C2=C(C(=O)N3CCCCC3)C(=O)C(=O)N21`, the IC50 [11] is reported as > 50 µM (not active).

For `CC1CCCCC1NC(=O)COC(=O)c1ccc([N+](=O)[O-])o1` (stereo not given), the AC50 (Caspase-6) was 43.8 µM (active).
